This is an account of results in article PMC5983862, “Insight into small molecule binding to the neonatal Fc receptor by X-ray crystallography and 100 kHz magic-angle-spinning NMR” (PLoS Biology, 2018).

Assay [1] concerns the target T1, neonatal Fc receptor (FcRn) α-chain, extracellular domain (FcRnECD) (Homo sapiens, UniProt P55899+P61769).
T1 construct: gene FCGRT; extracellular domain (ECD) (amino acids 1–297) of human FcRn α-chain, with human β2m; with β2-microglobulin (β2m, B2M)
Briefly: affinity measurement (SPR implied). The format is binding.

Assay [2] concerns the target T1, neonatal Fc receptor (FcRn) α-chain, extracellular domain (FcRnECD). In words: SPR Kd; X-ray crystal structure; […] CPMG and STD NMR fragment screen. Format: binding.
Assay [3] has the same target. In words: SPR Kd; X-ray crystal structure; MAS NMR chemical-shift perturbations. Format: binding.
Assay [4] has as its target soluble extracellular domain of the neonatal Fc receptor (FcRnECD), heterodimer of α-chain and β2m, from insect cells (human). Briefly: crystal structure; FcRnECD from insect cells; crystals at pH 3 (PEG 6000, citric acid/ammonium citrate) and at pH 8.5 (Bis-Tris propane, NaI, PEG 3350); compounds soaked into pH 3 crystals; two heterodimers in the asymmetric unit.

T1 sequence (P55899 24-297): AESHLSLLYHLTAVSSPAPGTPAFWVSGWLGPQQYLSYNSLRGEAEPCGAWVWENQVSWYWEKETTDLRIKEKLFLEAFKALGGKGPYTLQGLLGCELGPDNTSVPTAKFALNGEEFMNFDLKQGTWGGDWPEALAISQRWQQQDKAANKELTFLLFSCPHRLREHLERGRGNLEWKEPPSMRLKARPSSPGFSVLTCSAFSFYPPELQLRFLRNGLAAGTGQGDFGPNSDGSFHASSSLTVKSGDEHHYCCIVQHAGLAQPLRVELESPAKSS
T1 sequence (P61769 21-119): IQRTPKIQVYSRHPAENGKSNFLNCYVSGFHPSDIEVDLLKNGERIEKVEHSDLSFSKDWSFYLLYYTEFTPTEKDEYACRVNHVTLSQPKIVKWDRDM

Consider `CC(=O)C1=C(C)Nc2ncnn2C1c1cc(F)cc(F)c1` (racemic) [1-[7-(3,5-Difluorophenyl)-5-methyl-4,7-dihydro-[1,2,4]triazolo[1,5-a]pyrimidin-6-yl]ethanone], for which, in assay [1], binding was put at a Kd of 2400 nM.

In the case of `CC(=O)C1=C(C)Nc2ncnn2C1c1cccc(F)c1` (racemic) [UCB-FcRn-84, 1-[7-(3-fluorophenyl)-5-methyl-4,7-dihydro-[1,2,4]triazolo[1,5-a]pyrimidin-6-yl]ethanone], the dissociation constant Kd (as a rule, a measure of binding affinity in units of concentration) in assay [2] was approximately 80000 nM.

In the case of `COC(=O)C1=C(c2cccnc2)Nc2ncnn2C1c1cc(F)cc(F)c1` (stereo not shown) [UCB-FcRn-303, Methyl 7-(3,5-difluorophenyl)-5-(3-pyridyl)-4,7-dihydro-[1,2,4]triazolo[1,5-a]pyrimidine-6-carboxylate], the equilibrium dissociation constant (Kd) in assay [3] was 2400 nM.

On to “soluble extracellular domain of the neonatal Fc receptor (FcRnECD), heterodimer of α-chain and β2m, from insect cells (complex)”, for which, in assay [4], the stoichiometry N – broadly, a count of units in the complex or per binding partner – was found to be 2.
